pIC50: −log10 of the molar value.
test system: PC3 cells; test: NAMPT Cell Proliferation Assay; type: cell-based; conditions: Homo sapiens, PC-3, 120 h, 5 days incubation, cell viability by Cell Titer Glo
Method in brief: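 Five-day CellTiter-Glo viability readout in PC3 cells grown in RPMI/10% heat-inactivated FBS. Compounds added after overnight attachment as a 10-fold dilution series, […]. Percent inhibition fitted to sigmoidal dose-response to derive IC50.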

Row | SMILES | pIC50
1 | O=C(Nc1ccc(C2CCN(C(=O)c3cc(C(F)(F)F)ccc3Cl)CC2)cc1)[C@H]1CCN(c2cccnn2)C1 [Example 690, (3S)-N-(4-{1-[2-chloro-5-(trifluoromethyl)benzoyl]piperidin-4-yl}phenyl)-1-(pyridazin-3-yl)pyrrolidine-3-carboxamide] | 8.50
2 | CC(=O)N1CCC(c2ccc(NC(=O)[C@H]3CCN(c4cccnn4)C3)cc2)CC1 [Example 691, (3S)-N-[4-(1-acetylpiperidin-4-yl)phenyl]-1-(pyridazin-3-yl)pyrrolidine-3-carboxamide] | 7.52
3 | O=C(Nc1ccc(C2CCN(C(=O)c3ccc(F)cc3F)CC2)cc1)[C@H]1CCN(c2cccnn2)C1 [Example 692, (3S)-N-{4-[1-(2,4-difluorobenzoyl)piperidin-4-yl]phenyl}-1-(pyridazin-3-yl)pyrrolidine-3-carboxamide] | 8.37
4 | Cc1cc(C)cc(C(=O)N2CCC(c3ccc(NC(=O)[C@H]4CCN(c5cccnn5)C4)cc3)CC2)c1 [Example 693, (3S)-N-{4-[1-(3,5-dimethylbenzoyl)piperidin-4-yl]phenyl}-1-(pyridazin-3-yl)pyrrolidine-3-carboxamide] | 7.87
5 | CCOCCC(=O)N1CCC(c2ccc(NC(=O)[C@H]3CCN(c4cccnn4)C3)cc2)CC1 [Example 694, (3S)-N-{4-[1-(3-ethoxypropanoyl)piperidin-4-yl]phenyl}-1-(pyridazin-3-yl)pyrrolidine-3-carboxamide] | 7.15
6 | O=C(Nc1ccc(C2CCN(C(=O)c3cc(Cl)ccc3Cl)CC2)cc1)[C@H]1CCN(c2cccnn2)C1 [Example 695, (3S)-N-{4-[1-(2,5-dichlorobenzoyl)piperidin-4-yl]phenyl}-1-(pyridazin-3-yl)pyrrolidine-3-carboxamide] | 8.21
7 | Cc1ccc(C)c(C(=O)N2CCC(c3ccc(NC(=O)[C@H]4CCN(c5cccnn5)C4)cc3)CC2)c1 [Example 696, (3S)-N-{4-[1-(2,5-dimethylbenzoyl)piperidin-4-yl]phenyl}-1-(pyridazin-3-yl)pyrrolidine-3-carboxamide] | 8.33
8 | Cc1ccc(F)cc1C(=O)N1CCC(c2ccc(NC(=O)[C@H]3CCN(c4cccnn4)C3)cc2)CC1 [Example 697, (3S)-N-{4-[1-(5-fluoro-2-methylbenzoyl)piperidin-4-yl]phenyl}-1-(pyridazin-3-yl)pyrrolidine-3-carboxamide] | 8.22
9 | O=C(Nc1ccc(C2CCN(C(=O)C(c3ccccc3)c3ccccc3)CC2)cc1)[C@H]1CCN(c2cccnn2)C1 [Example 698, (3S)-N-{4-[1-(diphenylacetyl)piperidin-4-yl]phenyl}-1-(pyridazin-3-yl)pyrrolidine-3-carboxamide] | 7.17
10 | O=C(Nc1ccc(C2CCN(C(=O)c3ccc(C(F)(F)F)cc3)CC2)cc1)[C@H]1CCN(c2cccnn2)C1 [Example 699, (3S)-1-(pyridazin-3-yl)-N-(4-{1-[4-(trifluoromethyl)benzoyl]piperidin-4-yl}phenyl)pyrrolidine-3-carboxamide] | 7.19
11 | C=CCCC(=O)N1CCC(c2ccc(NC(=O)[C@H]3CCN(c4cccnn4)C3)cc2)CC1 [Example 700, (3S)-N-{4-[1-(pent-4-enoyl)piperidin-4-yl]phenyl}-1-(pyridazin-3-yl)pyrrolidine-3-carboxamide] | 8.06
12 | O=C(Nc1ccc(C2CCN(C(=O)c3cccc(OC(F)(F)F)c3)CC2)cc1)[C@H]1CCN(c2cccnn2)C1 [Example 701, (3S)-1-(pyridazin-3-yl)-N-(4-{1-[3-(trifluoromethoxy)benzoyl]piperidin-4-yl}phenyl)pyrrolidine-3-carboxamide] | 7.12
13 | O=C(Nc1ccc(C2CCN(C(=O)C3(c4ccccc4)CC3)CC2)cc1)[C@H]1CCN(c2cccnn2)C1 [Example 702, (3S)-N-(4-{1-[(1-phenylcyclopropyl)carbonyl]piperidin-4-yl}phenyl)-1-(pyridazin-3-yl)pyrrolidine-3-carboxamide] | 8.68

Reference: patent US20130303509A1, “NAMPT INHIBITORS” (AbbVie Inc., priority 2012, published 2013)
